Holding throughout (assay): Kinase activity test (ReactionBiology), % enzyme activity relative to DMSO
Holding throughout (format): biochemical

The target in one assay is VEGFR2 (Homo sapiens, UniProt P35968). Further details: purchased ReactionBiology. As to conditions: VEGFR2.
A further assay deals with T1, DAPK1 (Homo sapiens, UniProt P53355).
T1 construct: purchased ReactionBiology
As to conditions: for remaining activity at 1 µM / remaining activity at 10 µM: DAPK1.

For a further assay, the target named is T2, MST-4 (Homo sapiens, UniProt Q9P289).
T2 construct: purchased ReactionBiology
The conditions noted are these: for % Enzyme Activity (relative to DMSO controls), Average / % Enzyme Activity (relative to DMSO controls), Data 1 / % Enzyme Activity (relative to DMSO controls), Data 2: MST4; for % Enzyme Activity (relative to DMSO controls), Data 1: replicate Data 1; for % Enzyme Activity (relative to DMSO controls), Data 2: replicate Data 2.

In a further assay the target is T3, NEK2 (Homo sapiens, UniProt P51955).
T3 construct: purchased ReactionBiology
T3 sequence (P51955 1-445): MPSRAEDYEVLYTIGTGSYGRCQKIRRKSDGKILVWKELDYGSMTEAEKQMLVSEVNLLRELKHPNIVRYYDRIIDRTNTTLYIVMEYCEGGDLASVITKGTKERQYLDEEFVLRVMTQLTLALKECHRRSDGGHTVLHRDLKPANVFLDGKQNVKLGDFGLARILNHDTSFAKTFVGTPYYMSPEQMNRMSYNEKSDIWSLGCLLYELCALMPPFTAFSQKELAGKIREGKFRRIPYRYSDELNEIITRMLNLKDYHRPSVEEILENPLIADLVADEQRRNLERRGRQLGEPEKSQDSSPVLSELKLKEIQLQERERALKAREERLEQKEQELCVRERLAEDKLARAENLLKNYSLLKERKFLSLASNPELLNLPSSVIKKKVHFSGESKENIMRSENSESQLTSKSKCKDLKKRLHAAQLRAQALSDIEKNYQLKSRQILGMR
As to conditions: NEK2.

A further assay has as its target T4, CK1d (Homo sapiens, UniProt P48730).
T4 construct: purchased ReactionBiology
As to conditions: CK1d.

The target in the next assay is T5, EPHB4 (Homo sapiens, UniProt P54760).
T5 construct: purchased ReactionBiology
T5 sequence (P54760 16-987): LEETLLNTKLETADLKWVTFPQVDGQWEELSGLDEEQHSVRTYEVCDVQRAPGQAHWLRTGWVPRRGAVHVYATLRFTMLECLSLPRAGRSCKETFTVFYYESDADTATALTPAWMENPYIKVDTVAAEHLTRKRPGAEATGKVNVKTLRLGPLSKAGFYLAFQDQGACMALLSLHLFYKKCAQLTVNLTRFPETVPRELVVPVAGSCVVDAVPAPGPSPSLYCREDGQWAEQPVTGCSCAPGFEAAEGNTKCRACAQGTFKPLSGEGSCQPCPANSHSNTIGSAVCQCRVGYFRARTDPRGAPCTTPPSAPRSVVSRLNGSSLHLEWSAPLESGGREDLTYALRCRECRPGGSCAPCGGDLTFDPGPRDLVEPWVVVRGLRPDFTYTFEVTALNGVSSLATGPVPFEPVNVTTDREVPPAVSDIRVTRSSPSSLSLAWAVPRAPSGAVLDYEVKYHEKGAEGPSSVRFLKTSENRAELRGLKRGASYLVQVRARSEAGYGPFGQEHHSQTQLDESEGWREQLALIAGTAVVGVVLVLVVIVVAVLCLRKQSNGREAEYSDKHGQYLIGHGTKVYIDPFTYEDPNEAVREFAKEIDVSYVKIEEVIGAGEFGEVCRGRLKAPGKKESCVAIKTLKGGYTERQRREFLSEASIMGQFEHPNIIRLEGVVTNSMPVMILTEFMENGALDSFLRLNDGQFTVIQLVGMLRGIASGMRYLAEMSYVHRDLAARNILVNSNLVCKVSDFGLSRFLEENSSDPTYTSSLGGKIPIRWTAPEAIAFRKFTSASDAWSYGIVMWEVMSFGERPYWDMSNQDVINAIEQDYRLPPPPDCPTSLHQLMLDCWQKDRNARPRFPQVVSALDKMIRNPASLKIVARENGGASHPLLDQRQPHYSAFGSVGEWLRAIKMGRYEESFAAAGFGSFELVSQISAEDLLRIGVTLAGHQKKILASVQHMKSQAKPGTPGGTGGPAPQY
As to conditions: EPHB4.

Where [1] appears, read: Average, read-out: % Enzyme Activity (relative to DMSO controls), Average.
Setting [2] is: replicate Data 1, read-out: % Enzyme Activity (relative to DMSO controls), Data 1.
Setting [3] is: replicate Data 2, read-out: % Enzyme Activity (relative to DMSO controls), Data 2.
Where [4] appears, read: 1 uM, Average, read-out: % Enzyme Activity (relative to DMSO controls), Average.
Where [5] appears, read: 1 uM, replicate Data 1, read-out: % Enzyme Activity (relative to DMSO controls), Data 1.
Setting [6] is: 1 uM, replicate Data 2, read-out: % Enzyme Activity (relative to DMSO controls), Data 2.
Setting [7] is: 10 uM, Average, read-out: % Enzyme Activity (relative to DMSO controls), Average.
Where [8] appears, read: 10 uM, replicate Data 1, read-out: % Enzyme Activity (relative to DMSO controls), Data 1.
[9] abbreviates: 10 uM, replicate Data 2, read-out: % Enzyme Activity (relative to DMSO controls), Data 2.
The mark [10] stands for this setting: read-out: % Enzyme Activity (relative to DMSO controls), Average.
[11] abbreviates: read-out: % Enzyme Activity (relative to DMSO controls), Data 1.
The mark [12] stands for this setting: read-out: % Enzyme Activity (relative to DMSO controls), Data 2.

Where “and” joins values, the source holds several entries; their conditions need not be identical. Identical values can stand only once. Like-named read-outs stand apart in the source and are kept apart here.

T2 sequence (Q9P289 whole entry): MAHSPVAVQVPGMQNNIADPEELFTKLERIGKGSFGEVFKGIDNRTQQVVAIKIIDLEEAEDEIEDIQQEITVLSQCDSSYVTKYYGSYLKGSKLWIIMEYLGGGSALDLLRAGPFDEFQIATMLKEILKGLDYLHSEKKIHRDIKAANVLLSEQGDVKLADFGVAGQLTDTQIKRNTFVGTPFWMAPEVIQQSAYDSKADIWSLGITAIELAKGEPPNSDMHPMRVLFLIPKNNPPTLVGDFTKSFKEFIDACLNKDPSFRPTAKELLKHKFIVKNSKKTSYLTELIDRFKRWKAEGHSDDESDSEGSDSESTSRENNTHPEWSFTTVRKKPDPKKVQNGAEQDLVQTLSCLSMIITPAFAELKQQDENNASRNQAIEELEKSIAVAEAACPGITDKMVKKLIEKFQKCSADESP
Chain of VEGFR2 (P35968 20-1356): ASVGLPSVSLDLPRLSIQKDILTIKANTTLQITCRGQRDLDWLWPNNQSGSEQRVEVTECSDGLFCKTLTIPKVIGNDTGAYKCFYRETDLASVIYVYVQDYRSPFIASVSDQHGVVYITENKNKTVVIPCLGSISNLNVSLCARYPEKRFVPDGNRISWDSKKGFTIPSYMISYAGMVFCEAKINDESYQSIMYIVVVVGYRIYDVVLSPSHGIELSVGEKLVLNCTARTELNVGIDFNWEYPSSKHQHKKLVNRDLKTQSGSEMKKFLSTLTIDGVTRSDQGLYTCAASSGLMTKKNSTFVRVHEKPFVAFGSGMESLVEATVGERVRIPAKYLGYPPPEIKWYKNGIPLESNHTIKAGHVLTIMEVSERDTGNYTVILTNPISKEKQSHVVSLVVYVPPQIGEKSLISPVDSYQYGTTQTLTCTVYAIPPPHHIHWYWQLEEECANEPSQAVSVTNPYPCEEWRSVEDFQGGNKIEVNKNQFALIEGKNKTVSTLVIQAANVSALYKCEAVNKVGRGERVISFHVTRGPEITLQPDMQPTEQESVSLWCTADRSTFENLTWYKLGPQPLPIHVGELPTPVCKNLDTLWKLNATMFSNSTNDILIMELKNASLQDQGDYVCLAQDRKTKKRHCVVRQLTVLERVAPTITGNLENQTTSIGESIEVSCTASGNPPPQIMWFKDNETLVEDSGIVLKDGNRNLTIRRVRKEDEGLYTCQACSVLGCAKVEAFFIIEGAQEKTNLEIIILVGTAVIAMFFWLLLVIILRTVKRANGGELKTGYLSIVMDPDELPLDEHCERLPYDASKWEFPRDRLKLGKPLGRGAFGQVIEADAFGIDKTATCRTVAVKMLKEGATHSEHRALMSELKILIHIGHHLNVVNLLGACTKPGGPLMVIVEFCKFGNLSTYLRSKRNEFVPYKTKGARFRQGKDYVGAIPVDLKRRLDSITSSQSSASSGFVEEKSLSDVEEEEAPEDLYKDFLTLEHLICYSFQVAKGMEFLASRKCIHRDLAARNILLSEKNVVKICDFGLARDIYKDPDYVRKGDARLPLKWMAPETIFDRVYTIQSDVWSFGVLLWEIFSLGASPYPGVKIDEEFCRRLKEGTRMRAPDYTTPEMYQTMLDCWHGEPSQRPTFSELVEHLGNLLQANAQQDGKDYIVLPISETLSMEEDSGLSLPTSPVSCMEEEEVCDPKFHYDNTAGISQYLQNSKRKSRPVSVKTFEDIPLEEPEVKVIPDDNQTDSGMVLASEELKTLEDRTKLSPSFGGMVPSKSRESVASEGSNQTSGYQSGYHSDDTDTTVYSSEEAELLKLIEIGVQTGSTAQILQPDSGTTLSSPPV
T1 sequence (P53355 whole entry): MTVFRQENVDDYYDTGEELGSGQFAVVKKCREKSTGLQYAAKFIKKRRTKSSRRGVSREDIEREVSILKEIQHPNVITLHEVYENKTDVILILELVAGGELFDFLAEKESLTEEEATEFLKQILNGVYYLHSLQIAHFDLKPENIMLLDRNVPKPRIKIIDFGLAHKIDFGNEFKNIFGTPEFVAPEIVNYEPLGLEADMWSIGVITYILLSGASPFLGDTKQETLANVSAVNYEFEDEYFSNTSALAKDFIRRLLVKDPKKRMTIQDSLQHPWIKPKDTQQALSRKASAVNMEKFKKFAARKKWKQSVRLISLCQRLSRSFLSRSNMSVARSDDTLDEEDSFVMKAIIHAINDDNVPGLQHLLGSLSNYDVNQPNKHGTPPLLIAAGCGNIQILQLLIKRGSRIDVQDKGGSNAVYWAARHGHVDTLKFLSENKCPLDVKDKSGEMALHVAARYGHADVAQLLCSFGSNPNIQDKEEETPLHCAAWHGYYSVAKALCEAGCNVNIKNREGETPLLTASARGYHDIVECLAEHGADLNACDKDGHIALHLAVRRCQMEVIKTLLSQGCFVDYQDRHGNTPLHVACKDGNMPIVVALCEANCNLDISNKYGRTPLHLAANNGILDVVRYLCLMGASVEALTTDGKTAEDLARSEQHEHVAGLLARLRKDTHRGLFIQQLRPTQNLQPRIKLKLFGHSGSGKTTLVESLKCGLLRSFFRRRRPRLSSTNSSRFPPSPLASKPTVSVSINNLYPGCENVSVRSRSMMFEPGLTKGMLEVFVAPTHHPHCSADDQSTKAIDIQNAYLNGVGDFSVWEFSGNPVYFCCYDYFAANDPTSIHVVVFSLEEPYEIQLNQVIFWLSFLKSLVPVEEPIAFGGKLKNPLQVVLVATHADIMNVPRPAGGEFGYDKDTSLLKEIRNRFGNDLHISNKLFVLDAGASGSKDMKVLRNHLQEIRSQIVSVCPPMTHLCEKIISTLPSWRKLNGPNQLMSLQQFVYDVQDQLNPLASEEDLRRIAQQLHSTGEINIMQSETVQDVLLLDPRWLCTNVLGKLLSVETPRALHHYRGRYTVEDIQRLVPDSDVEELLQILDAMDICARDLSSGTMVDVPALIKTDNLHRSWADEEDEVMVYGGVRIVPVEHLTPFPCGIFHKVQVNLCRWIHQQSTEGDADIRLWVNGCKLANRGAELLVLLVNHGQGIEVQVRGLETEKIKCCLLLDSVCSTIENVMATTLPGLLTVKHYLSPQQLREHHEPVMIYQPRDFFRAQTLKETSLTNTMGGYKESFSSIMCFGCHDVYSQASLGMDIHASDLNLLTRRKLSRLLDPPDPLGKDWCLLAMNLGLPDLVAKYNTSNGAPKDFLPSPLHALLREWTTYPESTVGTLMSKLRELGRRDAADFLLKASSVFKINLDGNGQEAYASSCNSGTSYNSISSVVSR
T4 sequence (P48730 whole entry): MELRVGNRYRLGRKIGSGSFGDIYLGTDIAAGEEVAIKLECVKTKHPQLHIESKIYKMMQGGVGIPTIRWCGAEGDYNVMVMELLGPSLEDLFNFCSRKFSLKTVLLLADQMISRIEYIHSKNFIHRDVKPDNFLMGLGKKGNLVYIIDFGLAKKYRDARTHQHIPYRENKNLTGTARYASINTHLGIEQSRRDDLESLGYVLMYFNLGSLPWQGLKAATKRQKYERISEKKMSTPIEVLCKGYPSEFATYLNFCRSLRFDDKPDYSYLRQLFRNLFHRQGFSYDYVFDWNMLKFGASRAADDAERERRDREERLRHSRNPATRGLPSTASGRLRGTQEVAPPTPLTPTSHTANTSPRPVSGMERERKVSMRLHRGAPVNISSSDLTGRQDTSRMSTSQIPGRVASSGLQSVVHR

Turning to `Oc1ccc(O)cc1` [Hydroquinone], the “% Enzyme Activity (relative to DMSO controls), Average” value at VEGFR2 (1 uM, Average) is 108.33%; on VEGFR2 (10 uM, Average) it was 108.92%; at DAPK1, 106.84% and 99.20%; at MST-4 (1 uM) it was 86.76%; at MST-4 (10 uM), 89.91%. The “% Enzyme Activity (relative to DMSO controls), Data 1” value on VEGFR2 (1 uM, replicate Data 1) was 107.95%; at VEGFR2 (10 uM, replicate Data 1), 109.26%; at DAPK1, 112.42% and 95.43%; at MST-4 (1 uM), 90.83%; on MST-4 (10 uM) it was 90.73%. Further, the “% Enzyme Activity (relative to DMSO controls), Data 2” value on VEGFR2 (1 uM, replicate Data 2) was 108.7%; on VEGFR2 (10 uM, replicate Data 2) it was 108.57%; at DAPK1 it was 101.25% and 102.97%; on MST-4 (1 uM), 82.69%; on MST-4 (10 uM) it was 89.08%.
With `Cc1cccc(C)c1OCC(=O)N[C@@H](Cc1ccccc1)[C@@H](O)C[C@H](Cc1ccccc1)NC(=O)[C@H](C(C)C)N1CCCNC1=O` [Lopinavir, reference compound], the remaining activity at 1 µM on NEK2 (setting [1]) was 116%; on NEK2 (setting [2]), 118%; at NEK2 (setting [3]), 115%; at CK1d (setting [1]), 107%; at CK1d (setting [2]), 111%; on CK1d (setting [3]), 102%. For the same compound, the remaining activity at 1 µM stood at 104% at VEGFR2 (setting [4]); 106% on VEGFR2 (setting [5]); 103% at VEGFR2 (setting [6]); 92.6% on EPHB4 (setting [1]); 95.6% at EPHB4 (setting [2]); 89.7% on EPHB4 (setting [3]). Besides, the remaining activity at 1 µM at DAPK1 (setting [4]) was found to be 90.4%; at DAPK1 (setting [5]) it was 87.6%; on DAPK1 (setting [6]), 93.2%; at DAPK1 (compound 1μM, relative to DMSO controls, read-out: % Enzyme activity at 1μM) it was 90.4%. The remaining activity at 10 µM on NEK2 (setting [1]) is 88.7%; at NEK2 (setting [2]), 98.3%; at NEK2 (setting [3]), 79.2%; on CK1d (setting [1]) it was 109%; at CK1d (setting [2]), 113%; at CK1d (setting [3]), 105%. The remaining activity at 10 µM at VEGFR2 (setting [7]) was 99%; at VEGFR2 (setting [8]), 103%; at VEGFR2 (setting [9]), 95%; at EPHB4 (setting [1]), 87.3%; on EPHB4 (setting [2]), 89%; at EPHB4 (setting [3]) it was 85.7%. In addition, the remaining activity at 10 µM on DAPK1 (setting [7]) came out at 49.9%; on DAPK1 (setting [8]), 47.2%; at DAPK1 (setting [9]), 52.5%; at DAPK1 (compound 10μM, relative to DMSO controls, read-out: % Enzyme activity at 10μM), 49.9%.
As to `O=P(O)(O)C(O)(Cc1cnc2ccccn12)P(=O)(O)O` [Minodronic acid], the remaining activity at 1 µM was 95.6% at MST-4 (setting [10]), 84.5% at MST-4 (setting [11]) and 107% on MST-4 (setting [12]). Also, the remaining activity at 10 µM on MST-4 (setting [10]) was found to be 81.5%; at MST-4 (setting [11]), 83.7%; on MST-4 (setting [12]), 79.3%.
As to `O=C(CCCCCCC(=O)Nc1ccccc1)NO` [Vorinostat], at MST-4 (1 uM), the “% Enzyme Activity (relative to DMSO controls), Average” value turned out to be 61.30%; the “% Enzyme Activity (relative to DMSO controls), Data 1” value is listed as 64.87%; the “% Enzyme Activity (relative to DMSO controls), Data 2” value turned out to be 57.73%. In addition, at MST-4 (10 uM), the “% Enzyme Activity (relative to DMSO controls), Average” value is reported as 101.79%; the “% Enzyme Activity (relative to DMSO controls), Data 1” value is 93.77%; the “% Enzyme Activity (relative to DMSO controls), Data 2” value came to 109.8%.

The values are drawn from publication PMC7252619 (PLoS ONE, 2020).
